# Reference: PubChem BioAssay (NCI)
#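 Assay format: 96-well plates, 48-hour exposure. GI50 = concentration required for 50% inhibition of growth. TGI marks complete inhibition of growth.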
# How the values were obtained:
# Test in all cases: NCI-60 cell line screen, 48 h
# [1] = system: RXF 393 renal
# [2] = system: CCRF-CEM leukemia
# [3] = system: HCT-15 colon
# [4] = system: OVCAR-5 ovarian
# [5] = system: SK-MEL-2 melanoma
# [6] = system: HT29 colon
# [7] = system: XF 498 CNS
# [8] = system: HOP-92 NSCLC
# [9] = system: SNB-75 CNS
# [10] = system: MCF7 breast
# [11] = system: OVCAR-4 ovarian
# [12] = system: SF-539 CNS
# [13] = system: UACC-257 melanoma
# [14] = system: MALME-3M melanoma
# [15] = system: TK-10 renal
# [16] = system: ACHN renal
# [17] = system: M14 melanoma
Structure (SMILES),TGI [1] [µM],TGI [2] [µM],TGI [3] [µM],TGI [4] [µM],TGI [5] [µM],TGI [6] [µM],GI50 [7] [µM],TGI [7] [µM],GI50 [8] [µM],TGI [8] [µM],TGI [9] [µM],GI50 [10] [µM],TGI [10] [µM],TGI [11] [µM],TGI [12] [µM],TGI [13] [µM],TGI [14] [µM],TGI [15] [µM],TGI [16] [µM],TGI [17] [µM]
[Cl-].[Rh+3].c1ccc(-c2ccnc3c2ccc2c(-c4ccccc4)ccnc23)cc1.c1ccc(-c2ccnc3c2ccc2c(-c4ccccc4)ccnc23)cc1.c1ccc(-c2ccnc3c2ccc2c(-c4ccccc4)ccnc23)cc1,> 100,> 100,> 100,> 100,> 100,73.7,23.1,89.3,19,> 77.9,> 100,71.3,> 100,> 100,> 76,> 100,82.9,–,–,–
C/C=C(/C)C(=O)O[C@@H]1c2c(C)coc2C[C@H]2CC[C@H](O)[C@H](C)[C@]21C,78.2,> 100,> 100,> 100,–,> 100,–,–,–,> 100,–,–,87.8,> 100,87,> 100,77.9,> 100,> 100,> 100
COC(=O)[C@@H]1c2cc3c(c(O)c2[C@@H](OC)C[C@@]1(C)O)C(=O)c1c(O)cc2c(c1C3=O)OC1O[C@@]2(C)[C@H](O)[C@@H](N(C)C)[C@@H]1O,1.37,> 150,2.23,2.16,0.727,2,–,0.66,–,0.14,0.977,–,6.48,1.76,7.48,1.21,2.13,–,–,–
O=C(O)Cc1ccc(N2N=C(c3ccccc3)CC2=O)cc1,–,> 100,> 100,> 100,> 100,> 100,–,–,–,–,> 100,–,> 100,> 100,–,> 100,> 100,> 100,> 100,> 100
C=C(C)C1Cc2c(cc(O)c3c(=O)c4ccccc4n(C)c23)O1 (configuration not stated),33.9,> 100,> 100,> 100,> 100,> 100,–,41.8,–,54.5,37.2,–,–,26.7,–,> 100,> 100,34.8,> 100,90.4
CC(C)(C)OC(=O)C1=C(C(=O)OC(C)(C)C)SC2(S1)C(C(=O)OC(C)(C)C)=C(C(=O)OC(C)(C)C)Sc1c2ssc1=O,> 100,> 100,> 100,> 100,> 100,> 100,–,–,–,> 100,–,–,> 100,> 100,–,> 100,> 100,> 100,> 100,> 100
